Results taken from ChEMBL document CHEMBL3508140 (2016).

Legend:
[1] = Recovery of epirubicinol-glucuronide following intraperitoneal epirubicin at 4 mg.Kg-1 dose in mouse; assay type: ADME, organism-based, CD-1, Plasma; details: in vivo, ip
[2] = Recovery of epirubicin-glucuronide following intraperitoneal epirubicin at 4 mg.Kg-1 dose in mouse; assay type: ADME, organism-based, CD-1, Plasma; details: in vivo, ip
[3] = Recovery of epirubicinol-glucuronide following intravenous epirubicin at 4 mg.Kg-1 dose in rat; assay type: ADME, organism-based, SD, Plasma; details: in vivo
[4] = Recovery of epirubicin-glucuronide following intravenous epirubicin at 4 mg.Kg-1 dose in rat; assay type: ADME, organism-based, SD, Plasma; details: in vivo
[5] = Recovery of epirubicinol-glucuronide following intraperitoneal epirubicin at 4 mg.Kg-1 dose in hamster; assay type: ADME, organism-based, Cricetulus griseus, Plasma; details: chinese hamster, in vivo, ip
[6] = Recovery of epirubicin-glucuronide following intraperitoneal epirubicin at 4 mg.Kg-1 dose in hamster; assay type: ADME, organism-based, Cricetulus griseus, Plasma; details: chinese hamster, in vivo, ip
[7] = Recovery of epirubicinol-glucuronide following intravenous epirubicin at 4 mg.Kg-1 dose in rabbit; assay type: ADME, organism-based, Oryctolagus cuniculus, New Zealand White, Plasma; details: in vivo
[8] = Recovery of epirubicin-glucuronide following intravenous epirubicin at 4 mg.Kg-1 dose in rabbit; assay type: ADME, organism-based, Oryctolagus cuniculus, New Zealand White, Plasma; details: in vivo
[9] = Recovery of epirubicinol-glucuronide following intravenous epirubicin at 1.5 mg.Kg-1 dose in man; assay type: ADME, organism-based, Plasma; details: human, in vivo
[10] = Recovery of epirubicin-glucuronide following intravenous epirubicin at 1.5 mg.Kg-1 dose in man; assay type: ADME, organism-based, Plasma; details: human, in vivo
[11] = Urinary excretion of epirubicin glucuronide following epirubicin at 60-150 mg.m-2 dose in cancer patients; assay type: ADME, organism-based, Urine; details: human, in vivo
[12] = Urinary excretion of epirubicinol glucuronide following epirubicin at 60-150 mg.m-2 dose in cancer patients; assay type: ADME, organism-based, Urine; details: human, in vivo
[13] = (§1) Urinary excretion of epirubicin glucuronide following epirubicin at 50 mg.m-2 dose in cancer patients; assay type: ADME, organism-based, Urine; details: human, in vivo; at 50 mg/m2
[14] = (§2) Urinary excretion of epirubicinol glucuronide following epirubicin at 50 mg.m-2 dose in cancer patients; assay type: ADME, organism-based, Urine; details: human, in vivo; at 50 mg/m2
[15] = as §1; assay type: ADME, organism-based, Urine; details: human, in vivo; at 50 mg/m2; remark: listed apart in the source
[16] = as §2; assay type: ADME, organism-based, Urine; details: human, in vivo; at 50 mg/m2; remark: listed apart in the source
[17] = Urinary excretion of epirubicin glucuronide following epirubicin at 60 mg.m-2 dose in cancer patients; assay type: ADME, organism-based, Urine; details: human, in vivo; at 60 mg/m2
[18] = Urinary excretion of epirubicinol glucuronide following epirubicin at 60 mg.m-2 dose in cancer patients; assay type: ADME, organism-based, Urine; details: human, in vivo; at 60 mg/m2
[19] = Urinary excretion of epirubicin glucuronide following epirubicin at 75-90 mg.m-2 dose in cancer patients; assay type: ADME, organism-based, Urine; details: human, in vivo
[20] = Urinary excretion of epirubicinol glucuronide following epirubicin at 75-90 mg.m-2 dose in cancer patients; assay type: ADME, organism-based, Urine; details: human, in vivo
[21] = Biliary excretion of epirubicin glucuronide following epirubicin at 50 mg.m-2 dose in cancer patients; assay type: ADME, organism-based, Bile; details: human, in vivo; at 50 mg/m2
[22] = Biliary excretion of epirubicinol glucuronide following epirubicin at 50 mg.m-2 dose in cancer patients; assay type: ADME, organism-based, Bile; details: human, in vivo; at 50 mg/m2
[23] = (§3) Terminal half-life of epirubicin-glucuronide following intravenous epirubicin at 1 mg.Kg-1 dose in rabbit; assay type: ADME, organism-based, Oryctolagus cuniculus, New Zealand White, Plasma; details: in vivo
[24] = (§4) Terminal half-life of epirubicin-glucuronide following intravenous epirubicin at 3 mg.Kg-1 dose in rabbit; assay type: ADME, organism-based, Oryctolagus cuniculus, New Zealand White, Plasma; details: in vivo
[25] = as §3; assay type: ADME, organism-based, Oryctolagus cuniculus, New Zealand White, Plasma; details: in vivo; remark: listed apart in the source
[26] = as §4; assay type: ADME, organism-based, Oryctolagus cuniculus, New Zealand White, Plasma; details: in vivo; remark: listed apart in the source
[27] = AUC(0-2 h) of epirubicin-glucuronide following intravenous epirubicin at 1 mg.Kg-1 dose in rabbit; assay type: ADME, organism-based, Oryctolagus cuniculus, New Zealand White, Plasma; details: in vivo
[28] = AUC(0-2 h) of epirubicin-glucuronide following intravenous epirubicin at 3 mg.Kg-1 dose in rabbit; assay type: ADME, organism-based, Oryctolagus cuniculus, New Zealand White, Plasma; details: in vivo
[29] = Terminal half-life of epirubicinol-glucuronide following intravenous epirubicin at 1 mg.Kg-1 dose in rabbit; assay type: ADME, organism-based, Oryctolagus cuniculus, New Zealand White, Plasma; details: in vivo
[30] = Terminal half-life of epirubicinol-glucuronide following intravenous epirubicin at 3 mg.Kg-1 dose in rabbit; assay type: ADME, organism-based, Oryctolagus cuniculus, New Zealand White, Plasma; details: in vivo
[31] = AUC(0-2 h) of epirubicinol-glucuronide following intravenous epirubicin at 1 mg.Kg-1 dose in rabbit; assay type: ADME, organism-based, Oryctolagus cuniculus, New Zealand White, Plasma; details: in vivo
[32] = AUC(0-2 h) of epirubicinol-glucuronide following intravenous epirubicin at 3 mg.Kg-1 dose in rabbit; assay type: ADME, organism-based, Oryctolagus cuniculus, New Zealand White, Plasma; details: in vivo

In the case of COc1cccc2c1C(=O)c1c(O)c3c(c(O)c1C2=O)C[C@@](O)(C(=O)CO)C[C@@H]3O[C@H]1C[C@H](N)[C@@H](O[C@@H]2O[C@H](C(=O)O)[C@@H](O)[C@H](O)[C@H]2O)[C@H](C)O1, the Compound recovery [1] is reported as 0 10^-9M, the Compound recovery [2] is reported as 0 10^-9M and the Compound recovery [3] is reported as 0 10^-9M. For the same compound, the Compound recovery [4] was 0 10^-9M, the Compound recovery [5] was 0 10^-9M and the Compound recovery [6] was 0 10^-9M. The Compound recovery [7] was 0.5 10^-9M, the Compound recovery [8] was 1.7 10^-9M and the Compound recovery [9] was 90 10^-9M. For the same compound, the Compound recovery [10] was 460 10^-9M, the Compound recovery [11] was 1.3% and the Compound recovery [12] was 0.3%. The Compound recovery [13] was 4.6%, the Compound recovery [14] was 1.7% and the Compound recovery [15] was 3.3%. For the same compound, the Compound recovery [16] was 0.4%, the Compound recovery [17] was 3.2% and the Compound recovery [18] was 0.8%. The Compound recovery [19] was 3.2%, the Compound recovery [20] was 0.8% and the Compound recovery [21] was 4.6%. For the same compound, the Compound recovery [22] was 1.9%, the t1/2 [23] was 9 min and the t1/2 [24] was “OUTCOME = Not calculated”. The t1/2 [25] was 61.2 min, the t1/2 [26] was 29.4 min and the AUC [27] was 7.64 ng·h/mL. The AUC [28] was 15.83 ng·h/mL, the t1/2 [29] was 12.6 min and the t1/2 [30] was 23.4 min. It also gave an AUC [31] of 1.47 ng·h/mL and an AUC [32] of 4.01 ng·h/mL.
